In patent US9616037B2, “Aryl-phenyl-sulfonamido-cycloalkyl compounds and their use” (PIMCO 2664 Limited, priority 2008, dated 2017):

Legend:
[1] = In vivo pharmacokinetics study, oral and intravenous dosing; details: rat, 1 mg/kg; for half-life / bioavailability: male, Sprague-Dawley, plasma; for bioavailability: oral
Description: Absorption and metabolic stability were studied using an in vivo pharmacokinetics assay. Drug levels were assessed using ultra-performance LC/TOF-MS.
Three male Sprague-Dawley rats, 200-300 g, were dosed per route. Test compound was administered either orally or intravenously (dose level of 1 mg/kg body weight). Test compound was formulated in 50:50 tetraethylene glycol:PBS for both routes. Animals were given free access to food throughout the study. On the day prior to dosing, the carotid artery was cannulated for sample collection and for the intravenous study the jugular vein was cannulated to enable dosing.
Blood samples were taken from the carotid artery at the following time points and placed in heparinised tubes: • Oral dosing—predose, 0.25, 0.5, 1, 2, 4, 8 and 24 hours post dose. • IV dosing—predose, 0.08, 0.25, 0.5, 1, 2, 4 and 8 hours post dose.
Blood samples were centrifuged to obtain plasma, which was transferred to a separate container and frozen at −20° C.
The supernatants were collected for analysis. The standard samples were prepared similarly, after spiking blank rat plasma samples to study compound concentrations at 1, 2, 5, 10, 20, 50, 100, 200, 500 and 1000 ng/mL. In addition, extra samples were prepared from 0-1 hour i.v. samples by diluting 1/20 with 50% aqueous acetonitrile to avoid exceeding the linear range of the analytical method.
A Waters Acquity liquid ultra-performance chromatographic system (Waters Corp., Milford, Mass., USA) with autosampler, vacuum degasser and column oven was used. The analytical column used for all compounds was a Waters BEH C18, (2.1×50 mm, 1.7 μm, Waters Corp, Milford, Mass., USA) together with a 0.2 μm on-line filter before the column. The eluents were 0.1% acetic acid (A, pH 3.2) and methanol (B). Gradient elution from 5% to 60% B in two minutes was employed, followed by one minute gradient to 90% B and column equilibration. The flow rate was 0.5 mL/min and the column oven temperature was 35° C. The flow was directed to the MS via Water Acquity photo-diode-array (PDA) detector. LC/TOF-MS data were recorded with a Micromass LCT Premier XE time-of-flight (TOF) mass spectrometer (Micromass Ltd., Manchester, England) equipped with a LockSpray electrospray ionization source. A positive ionization mode of electrospray was used for all compounds. The mass range of m/z 100-900 was acquired. The W-option of the reflector was used, and the DRE (dynamic range enhancement) option was set to on. The mass spectrometer and HPLC system were operated under Micromass MassLynx 4.1 software. […] Masslynx 4.1 software was used for controlling the instrumentation and for data processing.
The pharmacokinetic parameters for the test compounds were calculated by WinNonlin Pro (Pharsight Corp, CA) using standard noncompartmental methods. The elimination phase half-life (t1/2) was calculated by least-squares regression analysis of the terminal linear part of the log concentration—time curve. The area under the plasma concentration—time curve (AUC) was determined by use of the linear trapezoidal rule up to the last measurable concentration and thereafter by extrapolation of the terminal elimination phase to infinity.

[2] = Human liver microsomal stability assay; format: in vitro ADME; details: both sexes, pH 7.4; pooled human liver microsomes 0.5 mg/mL, 3 μM compound, NADPH, 45 minute incubation
Description: Initial screening of candidate compounds was performed using in vitro assays to determine potency, metabolic stability and solubility in biologically relevant fluids. Potency was assessed using a viability assay based on the survival of the J774 macrophage cell line. […] Like osteoclasts, J774 macrophages are dependent on continued NFκB activation for survival, thereby providing a valuable screen for compounds with anti-inflammatory activity. Metabolic stability was measured by determining the rate of disappearance of compound in the presence of human liver microsomal preparations, as quantified by LC-MS/MS. Solubility was measured by equilibration of the compound in fasted state simulated intestinal fluid (FaSSIF) and quantified by HPLC.
Metabolic stability of APSAC derivatives was measured by determination of the rate of compound disappearance when incubated in the presence of human liver microsomes. Liver microsomes are prepared from the endoplasmic reticulum of hepatocytes and are the primary source of the most important enzymes (cytochrome P450) involved in drug metabolism. Study of drug stability in the presence of liver microsomes is accepted as a valuable model permitting rapid prediction of in vivo drug stability.
Human liver microsomes were obtained from a commercial source. Test compounds (3 μM) were incubated with pooled liver microsomes (male and female). Samples were incubated for a 45 minute period and removed at 5 time points and test compounds were analysed by LC-MS/MS.
The final incubation volume was 25 μL. A control incubation was included for each compound tested, where 0.1 M phosphate buffer pH 7.4 was added instead of NADPH. The control compounds testosterone and 7-hydroxycoumarin were included in each experiment and all incubations were performed singularly for each compound.
Each compound was incubated for 0, 5, 15, 30, and 45 minutes. The control (minus NADPH) was incubated for 45 minutes only. […] The incubation plates were centrifuged at 2500 rpm for 20 minutes at 4° C. to precipitate the protein.
Following protein precipitation, the sample supernatants were combined in cassettes of up to 4 compounds and analysed using standard LC-MS/MS conditions.
From a plot of the natural logarithm of the peak area ratio (i.e., the ratio of compound peak area:internal standard peak area) against time, the gradient of the line was determined. Subsequently, half-life and intrinsic clearance were calculated using the equations below: Eliminated rate constant (k)=(−gradient). […] Pharmacokinetics Studies

Row | SMILES | half-life ([1]; iv) | bioavailability [1] | half-life ([1]; po) | AUC ([1]; i.v.) | AUC ([1]; p.o.) | half-life at 3 µM [2]
1 | O=S(=O)(N[C@H]1CC[C@@H](CO)C1)c1ccc(-c2ccc(F)cc2F)cc1 [ABD773, 2′,4′-Difluoro-N-((1 S,3R)-3-(hydroxymethyl)cyclopentyl)biphenyl-4-sulfonamide] | 48.6 min | 13% | 190 min | 11900 ng/mL/min | 1500 ng/mL/min | 54 min
2 | O=S(=O)(N[C@H]1CC[C@@H](CO)CC1)c1ccc(-c2ccc(F)cc2F)cc1 [ABD781, 2′,4′-Difluoro-N-(cis-4-(hydroxymethyl)cyclohexyl)biphenyl-4-sulfonamide] | 52.2 min | 43% | 197 min | 22400 ng/mL/min | 9600 ng/mL/min | 41 min
